In general, EC50 refers to the midpoint of the concentration-response curve.

In data set [1] the test system is HT-22. The experiment in a line: Inhibition of RSL-3 induced Ptgs2 mRNA expression in […] cells measured after 4 hrs by quantitative PCR analysis. To be noted: Mus musculus, dose 1.25-5 µM. Type of data set: functional, cell-based.
In data set [2] the test system is HT-22. The experiment in a line: Reduction in ROS accumulation in RSL-3 treated […] cells assessed as reduction in fluorescence intensity at 1 uM incubated for 4 hrs by C11-BODIPY staining based confocal laser scanning microscopic analysis. The data set is classed as functional, cell-based. The note with it: Mus musculus.
In data set [3] the test system is HT-22. Description: Anti-ferroptotic activity against Erastin-induced ferroptosis in […] cells assessed as […] cell viability measured after 24 hrs by MTT assay. The note with it: Mus musculus, HT-22, 24 h. Type of data set: functional, cell-based. (Formazan colour is commonly taken as a measure of viable cells.)
The subject of data set [4] is HT-22. Description: Cytotoxicity against […] cells at 40 uM. Type of data set: toxicity, cell-based. To be noted: mouse, ht-22, 40 µM.
A short description of data set [5]: Permeability of the compound in PBS/EtOH buffer (70:30) incubated for 10 hrs by UV plate reader based PAMPA-BBB assay. The note with it: read-out: permeability. The data set is classed as ADME. (In general: In PAMPA a lipid-coated filter parts donor from acceptor wells.)
Data set [6] relates to HT-22. The experiment in a line: Anti-ferroptotic activity against Erastin-induced ferroptosis in […] cells assessed as […] cell viability measured after 24 hrs by MTT assay relative to control. Type of data set: functional, Mus musculus.
The test system of data set [7] is HT-22. The experiment in a line: Anti-ferroptotic activity against RSL-3-induced morphological changes in […] cells assessed as retention of cell morphology at 1 uM measured after 24 hrs. The data set is classed as functional, cell-based. The note with it: Mus musculus.
For data set [8], the system named is HT-1080. The experiment in a line: Anti-ferroptotic activity against siRNA-mediated GPX4 knockdown induced ferroptosis in human HT-1080 cells at 1 uM preincubated for 12 hrs in Opti-MEM medium followed by compound addition and measured after 36 hrs. Type of data set: functional, cell-based.
Data set [9] in a line: Metal chelating activity assessed as compound-Fe2+ complex formation at 50 uM by UV-Vis spectroscopic analysis.
Data set [10] in a line: Metal chelating activity assessed as compound-Fe3+ complex formation at 50 uM by UV-Vis spectroscopic analysis.
In data set [11] the test system is HT-22. Description: Reduction in ROS accumulation in RSL-3 treated […] cells assessed as reduction in fluorescence intensity at 5 uM incubated for 4 hrs by C11-BODIPY staining based confocal laser scanning microscopic analysis. Type of data set: functional, cell-based. To be noted: Mus musculus.
The test system of data set [12] is HT-22. Description: Anti-ferroptotic activity against RSL-3-induced morphological changes in […] cells assessed as retention of cell morphology measured after 24 hrs. The note with it: Mus musculus, dose 1.25-5 µM, DDE = dose-dependent effect. The data set is classed as functional, cell-based.
The test system of data set [13] is HT-22. Description: Effect on intracellular Fe2+ level in […] cells assessed as fluorescence intensity at 5 uM measured after 10 hrs by Hoechst/FerroOrange staining based confocal laser microscopy. The data set is classed as functional, cell-based. To be noted: Mus musculus.
Data set [14] deals with HT-22. The experiment in a line: Upregulation of FSP1 mRNA level in […] cells measured after 6 hrs by quantitative PCR analysis. To be noted: Mus musculus, dose 1.25-5 µM. Type of data set: functional, cell-based.
Data set [15] concerns Rattus norvegicus. Description: Neuroprotective activity against middle cerebral artery occlusion-induced ischemia-reperfusion injury Sprague-Dawley rat model assessed as morphological changes at 20 mg/kg, ip measured after 24 hrs by H and E staining-based assay. The data set is classed as functional, organism-based.
Data set [16] concerns Rattus norvegicus. Description: Neuroprotective activity against middle cerebral artery occlusion-induced ischemia-reperfusion injury Sprague-Dawley rat model assessed as reduction in MDA level at 20 mg/kg, ip measured after 24 hrs by TTC staining based assay. The data set is classed as functional, organism-based.
For data set [17], the system named is Rattus norvegicus. The experiment in a line: Neuroprotective activity against middle cerebral artery occlusion-induced ischemia-reperfusion injury Sprague-Dawley rat model assessed as reduction in 4-HNE level at 20 mg/kg, ip measured after 24 hrs by TTC staining based assay. The data set is classed as functional, organism-based.
Data set [18] deals with HT-22. Description: Upregulation of FSP1 protein level in […] cells assessed as increase in reduced to oxidized COQ10 ratio measured after 6 hrs by Western blot analysis. To be noted: Mus musculus. Type of data set: functional, cell-based. (In general: Immunoblotting shows a protein as a band on a membrane.)
The test system of data set [19] is Rattus norvegicus. Description: Neuroprotective activity against middle cerebral artery occlusion-induced ischemia-reperfusion injury Sprague-Dawley rat model assessed as reduction in neurobehavioral defects at 20 mg/kg, ip measured after 24 hrs by Longa test. Type of data set: functional, organism-based.
In data set [20] the test system is HT-22. Description: Reduction in cytosolic ROS accumulation in RSL-3 treated […] cells incubated for 4 hrs by H2DCFDA fluorescent probe based flow cytometry method. Type of data set: functional, cell-based. To be noted: Mus musculus, dose 1.25-5 µM, DDE = dose-dependent effect.
Data set [21] has as its system HT-22. The experiment in a line: Reduction in lipid ROS accumulation in RSL-3 treated […] cells incubated for 4 hrs by C11-BODIPY staining based flow cytometric analysis. Type of data set: functional, cell-based. The note with it: Mus musculus, dose 1.25-5 µM, DDE = dose-dependent effect.
Data set [22] relates to HT-22. Description: Upregulation of FSP1 protein level in […] cells measured after 6 hrs by Western blot analysis. Type of data set: functional, cell-based. The note with it: Mus musculus, dose 1.25-5 µM.
In data set [23] the test system is Rattus norvegicus. Description: Neuroprotective activity against middle cerebral artery occlusion-induced ischemia-reperfusion injury Sprague-Dawley rat model assessed as reduction in infarct volume at 20 mg/kg, ip measured after 24 hrs by TTC staining based assay. The data set is classed as functional, organism-based.
Data set [24] deals with HT-1080. Description: Anti-ferroptotic activity against siRNA-mediated GPX4 knockdown induced ferroptosis in human HT-1080 cells at 5 uM preincubated for 12 hrs in Opti-MEM medium followed by compound addition and measured after 36 hrs. Type of data set: functional, cell-based.
For data set [25], the system named is HT-22. Description: Anti-ferroptotic activity against RSL-3 induced ferroptosis in […] cells assessed as inhibition of cell death measured after 24 hrs by MTT assay. The data set is classed as functional, cell-based. To be noted: Mus musculus, HT-22, 24 h.
The subject of data set [26] is Rattus norvegicus. Description: Neuroprotective activity against middle cerebral artery occlusion-induced ischemia-reperfusion injury Sprague-Dawley rat model assessed as morphological changes at 20 mg/kg, ip measured after 24 hrs by Nissl staining based assay. Type of data set: functional, organism-based.
The subject of data set [27] is Rattus norvegicus. The experiment in a line: Neuroprotective activity against middle cerebral artery occlusion-induced ischemia-reperfusion injury Sprague-Dawley rat model assessed as reduction in PTGS2 mRNA expression level at 20 mg/kg, ip measured after 24 hrs by TTC staining based assay. The data set is classed as functional, organism-based.
Data set [28] deals with HT-22. The experiment in a line: Anti-ferroptotic activity against Erastin-induced ferroptosis in […] cells assessed as inhibition of cell death measured after 24 hrs by MTT assay. The data set is classed as functional, cell-based. The note with it: Mus musculus, HT-22, 24 h.

The source made the active and inactive calls. No cut-off for these calls is given here. Some results are limits rather than exact numbers.

Regarding `COC(=O)c1ccc([C@H]2c3[nH]c4ccccc4c3C[C@H](C(=O)OC)N2C(=O)CCl)cc1`, in the data set on HT-22 [1], the inhibition entry is “Active”. Also, the outcome in the data set with HT-22 [2] was Active.
As for `COc1cccc(OC)c1/C=C/C=C(/C(=O)N1CCN(c2ncccn2)CC1)c1ccccc1`, in the data set with HT-22 [3], the 50% effective concentration (EC50) is more than 20 µM.
In the case of `O=C(/C(=C/C=C/c1ccc(O)cc1)c1ccccc1)N1CCN(c2ncccn2)CC1`, the Activity result with HT-22 [4] is reported as “Non-Toxic”; with HT-22 [6] it was 81.9%. Moreover, in the data set on HT-22 [3], the EC50 came out at 12 µM. Also, the Papp at 10 h in [5] was found to be 5.2 ×10⁻⁶ cm/s.
Take `O=C(/C(=C/C=C/c1ccccc1)c1ccc(O)cc1)N1CCN(c2ncccn2)CC1`: the EC50 in the data set with HT-22 [3] is more than 20 µM. The Papp at 10 h in [5] worked out at 8.3 ×10⁻⁶ cm/s.
The corresponding values for `O=C(/C(=C/C=C/c1ccccc1)c1cccc(O)c1)N1CCN(c2ncccn2)CC1` are more than 20 µM and 14.5 ×10⁻⁶ cm/s.
`CCOC(=O)c1ccc(NC2CCCCC2)c(N)c1`: the result with HT-22 [2], in the data set with HT-22 [7] and in the data set on HT-1080 [8] was Active.
Regarding `O=C(/C(=C/C=C/c1cccc(O)c1)c1ccccc1)N1CCN(c2ncccn2)CC1`, the EC50 in the data set with HT-22 [3] was more than 20 µM. In addition, in data set [5], the Papp at 10 h was 9.9 ×10⁻⁶ cm/s.
In the case of `CC(=O)N(O)CCCCCNC(=O)CCC(=O)N(O)CCCCCNC(=O)CCC(=O)N(O)CCCCCN`, the result in [9] and in [10] was Active.
For `COc1ccc(/C(=C\C=C\c2ccccc2)C(=O)N2CCN(c3ncccn3)CC2)cc1OC`, in the data set on HT-22 [3], the EC50 was more than 20 µM. In addition, the Papp at 10 h in data set [5] came out at 16.4 ×10⁻⁶ cm/s.
The corresponding values for `COc1cc(/C(=C\C=C\c2ccccc2)C(=O)N2CCN(c3ncccn3)CC2)ccc1O` are more than 20 µM and 10.2 ×10⁻⁶ cm/s.
Consider `COc1cc(/C=C/C=C(/C(=O)N2CCN(c3ncccn3)CC2)c2cccc(O)c2)ccc1O`, for which the EC50 in the data set on HT-22 [3] is 4.5 µM. Further, in data set [5], the Papp at 10 h amounted to 5.2 ×10⁻⁶ cm/s. The Activity in the data set on HT-22 [6] worked out at 84.2%.
As to `COc1ccc(/C=C/C=C(/C(=O)N2CCN(c3ncccn3)CC2)c2ccccc2)cc1`, in the data set on HT-22 [3], the EC50 is more than 20 µM. The Papp at 10 h in [5] is 15.7 ×10⁻⁶ cm/s.
The corresponding values for `COc1ccccc1/C=C/C=C(/C(=O)N1CCN(c2ncccn2)CC1)c1ccccc1` are more than 20 µM and 13.6 ×10⁻⁶ cm/s.
Consider `COc1cc(/C=C/C=C(/C(=O)N2CCN(c3ncccn3)CC2)c2ccc(O)c(OC)c2)ccc1O`, for which the EC50 in the data set with HT-22 [3] was determined as 4 µM. In [5], the Papp at 10 h was found to be 5.3 ×10⁻⁶ cm/s. For the same molecule, in the data set with HT-22 [6], the Activity is reported as 79.5%.
For `COc1cccc(/C=C/C=C(/C(=O)N2CCN(c3ncccn3)CC2)c2ccccc2)c1`, the 50% effective concentration (EC50) in the data set with HT-22 [3] was more than 20 µM. Further, the Papp at 10 h in data set [5] stood at 10.2 ×10⁻⁶ cm/s.
The corresponding values for `COc1ccc(/C=C/C=C(/C(=O)N2CCN(c3ncccn3)CC2)c2ccccc2)c(OC)c1` are more than 20 µM and 18.9 ×10⁻⁶ cm/s.
As for `COc1cc(/C=C/C=C(/C(=O)N2CCN(c3ncccn3)CC2)c2ccccc2)ccc1O`, the outcome in the data set with HT-22 [11], in the data set on HT-22 [13], in the data set on HT-22 [14], in the data set with Rattus norvegicus [15], in the data set with Rattus norvegicus [16] and in the data set on Rattus norvegicus [17] was Active. The outcome in the data set with HT-22 [18], with Rattus norvegicus [19], in the data set on HT-22 [22], in the data set on Rattus norvegicus [23], in the data set on HT-1080 [24] and with Rattus norvegicus [26] was Active. Moreover, in the data set with Rattus norvegicus [27], the outcome was Active. In addition, the Activity result with HT-22 [12] is “Dde”; in the data set on HT-22 [20], “Dde”; in the data set on HT-22 [21], “Dde”; in the data set on HT-22 [6] it was 76.7%. Further, the EC50 in the data set on HT-22 [3], in the data set on HT-22 [25] and in the data set on HT-22 [28] was 1.7 µM throughout. Also, in the data set with HT-22 [1] (DDE = dose-dependent effect), the inhibition entry is “Dde”. The Papp at 10 h in [5] was determined as 15.3 ×10⁻⁶ cm/s.

Source of the values: ChEMBL document CHEMBL5154727, “Discovery of novel diphenylbutene derivative ferroptosis inhibitors as neuroprotective agents” (Eur J Med Chem, 2022).
